22 molecules from patent US9926304B2, “1-(arylmethyl)quinazoline-2,4(1H,3H)-diones as PARP inhibitors and the use thereof” (Impact Therapeutics, Inc., priority 2011, dated 2018) can be followed below.

The subject of experiment [1] is Human breast cancer cell line T47D. Description: Cell based caspase-3 activity assay: potentiation of MMS induced apoptosis. Particulars: T47D cells, 11.1 μg/ml MMS, 24 hours, intracellular caspase-3 activity, read-out: EC50 (nM), potentiation of the apoptosis inducing activity of MMS. The text has this: Determination of the synergistic potentiation effect of 1-(3-(4-(pyrimidin-2-yl)piperazine-1-carbonyl)benzyl)quinazoline-2,4(1H,3H)-dione and analogs on MMS induced apoptosis using a cell based caspase-3 activity assay
Human breast cancer cell line T47D was used to determine the potentiation effect of PARP inhibitors on the apoptosis inducing activity of DNA damaging anticancer drugs such as MMS. Intracellular caspase-3 activity was used to measure cell apoptosis. The dose response effect of MMS to induce intracellular caspase activity was carefully titrated and the concentration that only induces a minimal level of caspase activity was used to test the potentiation effect of PARP inhibitors. Briefly, T47D cells were grown in DMEM/F12 cell culture medium (Hyclone) supplemented with 0.2 U/ml insulin (Genview) and 10% FBS (Hyclone). A day before experiment, 20000 of T47D cells were seeded to each well of a 96-well cell culture plate and maintained at 37° C. and 5% CO2 in a cell culture incubator overnight. On the day of experiment, cell culture medium was removed. One hundred and eighty μl of fresh medium containing 11.1 μg/ml MMS was added to each well and followed by 20 μl medium containing 10 folds of the concentrations of experimental drugs or reference compounds (ADZ2281 and ABT-888). The serial dilutions of the compounds to be tested and the reference compounds were made in a 1:3 and 1:10 fashion in DMSO. The 10-fold compound solutions were made by mixing 10 μl DMSO serial dilution solutions with 90 μl fresh growth medium. Twenty four hours later, the cells in the 96-well plates were centrifuged at 1000 g for 5 min and the supernatants were removed. Fifty μl lysis buffer (10 mM Tris, pH7.5, 0.1M NaCl, 1 mM EDTA, 0.01% Triton X-100) was added to each well and the plates were shaked horizontally for 30 min at 4° C. After centrifugation at 1000 g at 4° C. for 10 min, 20 μl of supernatant was transferred from each well to a corresponding well in a 384-well black plate. Twenty μl of buffer (20 mM PIPES, pH7.4, 4 mM EDTA and 0.2% CHAPS) containing 20 μM fluorescent caspase-3 substrate ((Ac-DEVD)2-R110, AnaSpec Cat #60304-5) was added to each well afterwards. The plates were shaked to uniformly mix the wells and incubated at 37° C. for 3 h. The fluorescence intensity was measured using the following wavelength: ex: 496 nm, em: 520 nm using a fluorescence plate reader (Varioskan Flash, Thermo Fisher Scientific). The caspase-3 activity induced by the compounds was expressed as a relative fluorescence unit (RFU). The obtained fluorescence readings were analyzed using a commercial graphic software (GraphPad Prism 5) and plotted against the Log value of the compound concentrations. The EC50 values were obtained by fitting the data points with the equation of Y (fluorescence reading)=minimal fluorescence reading+(maximal fluorescence reading−minimal fluorescence reading)/(1+10^(Log EC50−Log C)), where C is the concentration of the testing compound.
The synergistic potentiation effect of compounds on MMS induced apoptosis in T47D cells is expressed as EC50 values and listed in Table 2.

Experiment [2] relates to SW620 human colorectal cancer cells. In words: MTT based cell viability assay: potentiation of the growth inhibiting activity of MMS.
[3] abbreviates: Homo sapiens, SW-620, 120 h, read-out: IC50 (nM), potentiation of the growth inhibiting activity of MMS, SW620 cells, 1.7 μg/ml MMS, 5 days (120 hours), MTT.

The structures appear in SMILES notation. Where two headings read alike, the source gives them in different places.

`O=C(c1cccc(Cn2c(=O)[nH]c(=O)c3ccccc32)c1)N1CCN(c2nccs2)CC1` [Example 72, 1-(3-(4-(Thiazol-2-yl)piperazine-1-carbonyl)benzyl)quinazoline-2,4(1H,3H)-dione]: the EC50 (as a rule, the concentration giving half of the maximal effect) in experiment [1] (Homo sapiens, T47D, 24 h) was 41 nM. Also, the IC50 in experiment [2] (setting [3]) stood at 80 nM.

On to `O=C(c1cccc(Cn2c(=O)[nH]c(=O)c3ccccc32)c1)N1CCN(CC2CCCCC2)CC1` [Example 73, 1-(3-(4-(Cyclohexylmethyl)piperazine-1-carbonyl)benzyl)quinazoline-2,4(1H,3H)-dione], for which, in experiment [1] (Homo sapiens, T47D, 24 h), the EC50 worked out at 811 nM. In addition, the IC50 in experiment [2] (setting [3]) worked out at 3380 nM.

With `O=C(c1cccc(Cn2c(=O)[nH]c(=O)c3ccccc32)c1)N1CCN(CC2CCCC2)CC1` [Example 74, 1-(3-(4-(Cyclopentylmethyl)piperazine-1-carbonyl)benzyl)quinazoline-2,4(1H,3H)-dione], the EC50 in experiment [1] (Homo sapiens, T47D, 24 h) is 2110 nM. Moreover, the IC50 in experiment [2] (setting [3]) is over 10000 nM.

As to `O=C(c1cccc(Cn2c(=O)[nH]c(=O)c3ccccc32)c1)N1CCN(S(=O)(=O)C2CCCCC2)CC1` [Example 75, 1-(3-(4-(Cyclohexylsulfonyl)piperazine-1-carbonyl)benzyl)quinazoline-2,4(1H,3H)-dione], in experiment [1] (Homo sapiens, T47D, 24 h), the EC50 was found to be 2870 nM. Besides, the IC50 in experiment [2] (setting [3]) was determined as 2660 nM.

`O=C(c1cccc(Cn2c(=O)[nH]c(=O)c3ccc(F)cc32)c1)N1CCN(C(=O)C2CCCC2)CC1` [Example 77, 1-(3-(4-(Cyclopentylcarbonyl)piperazine-1-carbonyl)benzyl)-7-fluoroquinazoline-2,4(1H,3H)-dione]: the EC50 in experiment [1] (Homo sapiens, T47D, 24 h) was 5210 nM. Besides, the IC50 in experiment [2] (setting [3]) came to 2960 nM.

For the molecule `O=C(c1cccc(Cn2c(=O)[nH]c(=O)c3ccc(F)cc32)c1)N1CCN(c2ncccn2)CC1` [Example 78, 7-Fluoro-1-(3-(4-(pyrimidin-2-yl)piperazine-1-carbonyl)benzyl)quinazoline-2,4(1H,3H)-dione], the EC50 in experiment [1] (Homo sapiens, T47D, 24 h) was found to be 112 nM. Besides, in experiment [2] (setting [3]), the IC50 was 269 nM.

As to `Cc1ccc2c(=O)[nH]c(=O)n(Cc3cccc(C(=O)N4CCN(C(=O)C5CCCC5)CC4)c3)c2c1` [Example 79, 1-(3-(4-(Cyclopentylcarbonyl)piperazine-1-carbonyl)benzyl)-7-methylquinazoline-2,4(1H,31H)-dione], the EC50 in experiment [1] amounted to 3220 nM. Further, the IC50 in experiment [2] (read-out: IC50 (nM), potentiation of the growth inhibiting activity of MMS, SW620 cells, 1.7 μg/ml MMS, 5 days (120 hours), MTT) came out at 5540 nM.

On to `Cc1ccc2c(=O)[nH]c(=O)n(Cc3cccc(C(=O)N4CCN(c5ncccn5)CC4)c3)c2c1` [Example 80, 7-Methyl-1-(3-(4-(pyrimidin-2-yl)piperazine-1-carbonyl)benzyl)quinazoline-2,4(1H,3H)-dione], for which the EC50 in experiment [1] (Homo sapiens, T47D, 24 h) was 1190 nM. Moreover, the IC50 in experiment [2] (setting [3]) is over 10000 nM.

Regarding `Cc1ccc2c(c1)c(=O)[nH]c(=O)n2Cc1cccc(C(=O)N2CCN(C(=O)C3CCCC3)CC2)c1` [Example 82, 1-(3-(4-(Cyclopentylcarbonyl)piperazine-1-carbonyl)benzyl)-6-methylquinazoline-2,4(1H,3H)-dione], in experiment [1] (Homo sapiens, T47D, 24 h), the EC50 worked out at 154 nM. In addition, the IC50 in experiment [2] (setting [3]) was 459 nM.

Consider `Cc1ccc2c(c1)c(=O)[nH]c(=O)n2Cc1ccc(F)c(C(=O)N2CCN(C(=O)C3CCCCC3)CC2)c1` [Example 84, 1-(3-(4-(Cyclohexylcarbonyl)piperazine-1-carbonyl)-4-fluorobenzyl)-6-methylquinazoline-2,4(1H,3H)-dione], for which the EC50 in experiment [1] (Homo sapiens, T47D, 24 h) worked out at 18 nM. In addition, the IC50 in experiment [2] (setting [3]) was determined as 52 nM.

Regarding `O=C(c1cccc(Cn2c(=O)[nH]c(=O)c3cc(Br)ccc32)c1)N1CCN(C(=O)C2CCCCC2)CC1` [Example 86, 6-Bromo-1-(3-(4-(cyclohexylcarbonyl)piperazine-1-carbonyl)benzyl)quinazoline-2,4(1H,3H)-dione], in experiment [1] (Homo sapiens, T47D, 24 h), the EC50 amounted to 27 nM. Further, the IC50 in experiment [2] (setting [3]) was determined as 86 nM.

Take `O=C(c1cccc(Cn2c(=O)[nH]c(=O)c3cc(Br)ccc32)c1)N1CCN(C(=O)C2CCCC2)CC1` [Example 87, 6-Bromo-1-(3-(4-(cyclopentylcarbonyl)piperazine-1-carbonyl)benzyl)quinazoline-2,4(1H,3H)-dione]: the concentration for a half-maximal effect (EC50) in experiment [1] (Homo sapiens, T47D, 24 h) amounted to 27 nM. The IC50 in experiment [2] (setting [3]) was found to be 35 nM.

Turning to `O=C(c1cccc(Cn2c(=O)[nH]c(=O)c3cc(Br)ccc32)c1)N1CCN(c2ncccn2)CC1` [Example 88, 6-Bromo-1-(3-(4-(pyrimidin-2-yl)piperazine-1-carbonyl)benzyl)quinazoline-2,4(1H,3H)-dione], in experiment [1] (Homo sapiens, T47D, 24 h), the EC50 was found to be 67 nM. Also, the IC50 in experiment [2] (setting [3]) worked out at 137 nM.

On to `O=C(c1cccc(Cn2c(=O)[nH]c(=O)c3cc([N+](=O)[O-])ccc32)c1)N1CCN(C(=O)C2CCCC2)CC1` [Example 90, 1-(3-(4-(Cyclopentylcarbonyl)piperazine-1-carbonyl)benzyl)-6-nitroquinazoline-2,4(1H,3H)-dione], for which the EC50 in experiment [1] (Homo sapiens, T47D, 24 h) stood at 4170 nM. The IC50 in experiment [2] (setting [3]) was over 10000 nM.

For the molecule `O=C(c1cccc(Cn2c(=O)[nH]c(=O)c3cc([N+](=O)[O-])ccc32)c1)N1CCN(c2ncccn2)CC1` [Example 91, 6-Nitro-1-(3-(4-(pyrimidin-2-yl)piperazine-1-carbonyl)benzyl)quinazoline-2,4 (1H,3H)-dione], in experiment [1] (Homo sapiens, T47D, 24 h), the EC50 was found to be 1990 nM. Further, the IC50 in experiment [2] (setting [3]) is over 10000 nM.

With `O=C(c1cccc(Cn2c(=O)[nH]c(=O)c3cc([N+](=O)[O-])ccc32)c1)N1CCN(C(=O)C2CCCCC2)CC1` [Example 92, 1-(3-(4-(Cyclohexylcarbonyl)piperazine-1-carbonyl)benzyl)-6-nitroquinazoline-2,4(1H,3H)-dione], the EC50 in experiment [1] (Homo sapiens, T47D, 24 h) is 2930 nM. Moreover, in experiment [2] (setting [3]), the IC50 is over 10000 nM.

In the case of `O=C(c1ccccc1)N1CCN(C(=O)c2ccc(Cn3c(=O)[nH]c(=O)c4ccccc43)cc2)CC1` [Example 93, 1-(4-(4-Benzoylpiperazine-1-carbonyl)benzyl)quinazoline-2,4(1H,3H)-dione], the EC50 in experiment [1] (Homo sapiens, T47D, 24 h) is over 10000 nM. The IC50 in experiment [2] (setting [3]) is over 10000 nM.

With `O=C(c1ccc(Cn2c(=O)[nH]c(=O)c3ccccc32)cc1)N1CCN(c2ccccn2)CC1` [Example 94, 1-(4-(4-(Pyridin-2-yl)piperazine-1-carbonyl)benzyl)quinazoline-2,4(1H,3H)-dione], the concentration for a half-maximal effect (EC50) in experiment [1] (Homo sapiens, T47D, 24 h) was over 10000 nM. The IC50 in experiment [2] (setting [3]) was over 10000 nM.

Turning to `COc1ccc(C(=O)N2CCN(C(=O)c3ccc(Cn4c(=O)[nH]c(=O)c5ccccc54)cc3)CC2)cc1` [Example 95, 1-(4-(4-(4-Methoxybenzoyl)piperazine-1-carbonyl)benzyl)quinazoline-2,4(1H,3H)-dione], the EC50 in experiment [1] (Homo sapiens, T47D, 24 h) is over 10000 nM. For the same molecule, the IC50 in experiment [2] (setting [3]) was over 10000 nM.

As to `O=C(c1ccc(F)cc1)N1CCN(C(=O)c2ccc(Cn3c(=O)[nH]c(=O)c4ccccc43)cc2)CC1` [Example 96, 1-(4-(4-(4-Fluorobenzoyl)piperazine-1-carbonyl)benzyl)quinazoline-2,4(1H,3H)-dione], the EC50 in experiment [1] (Homo sapiens, T47D, 24 h) was over 10000 nM. In addition, in experiment [2] (setting [3]), the IC50 is over 10000 nM.

In the case of `O=C(c1ccc(Cn2c(=O)[nH]c(=O)c3ccccc32)cc1)N1CCN(c2ncccn2)CC1` [Example 97, 1-(4-(4-(Pyrimidin-2-yl)piperazine-1-carbonyl)benzyl)quinazoline-2,4(1H,3H)-dione], the EC50 in experiment [1] (Homo sapiens, T47D, 24 h) is over 10000 nM. In addition, in experiment [2] (setting [3]), the IC50 was over 10000 nM.

For the molecule `O=C(c1ccc(Br)cc1)N1CCN(C(=O)c2ccc(Cn3c(=O)[nH]c(=O)c4ccccc43)cc2)CC1` [Example 98, 1-(4-(4-(4-Bromobenzoyl)piperazine-1-carbonyl)benzyl)quinazoline-2,4(1H,3H)-dione], in experiment [1] (Homo sapiens, T47D, 24 h), the EC50 is over 10000 nM. In addition, the IC50 in experiment [2] (setting [3]) is over 10000 nM.
